The record followed here is patent US20260256789A1, “METHODS FOR TREATMENT OF CANCER” (Frontier Medicines Corporation, priority 2022, published 2026).

Bounds are passed on as bounds.

T1 sequence (P01116 1-169 isoform P01116-2 G12C/C51S/C80L/C118S): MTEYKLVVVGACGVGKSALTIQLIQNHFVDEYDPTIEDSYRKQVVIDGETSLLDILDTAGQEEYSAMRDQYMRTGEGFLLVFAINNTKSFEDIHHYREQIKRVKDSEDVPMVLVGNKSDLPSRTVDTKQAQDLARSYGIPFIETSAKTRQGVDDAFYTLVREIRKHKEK

The assay addresses T1, KRAS G12C (GMPPNP-loaded) and cRAF Ras-binding domain (Homo sapiens, UniProt P01116, C118S/C51S/C80L/G12C).
T1 construct: truncated version comprising amino acids 1-169
Nature of the assay: Inhibition of KRAS G12C and cRAF binding (AlphaScreen). The settings on record: KRAS G12C preloaded with GTP analogue GMPPNP, 2 hours preincubation. Summed up: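 Compounds (10-point, 1:3 from 50 μM; 2% DMSO) were incubated 2 h at room temperature with 0.5 nM GMPPNP-preloaded truncated Cys-light KRAS G12C, then 60-90 min with 0.75 nM GST-RBD of cRAF and AlphaScreen beads. Signal at 570 nm gave IC50 by 4-parameter regression, and a biotin-AviTag-GST counter assay excluded interference with the AlphaScreen readout.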
(Alpha assays give light when donor and acceptor beads are brought close together.)
The term IC50 denotes the midpoint of a concentration-inhibition curve. For the compound `CN(CC1CN(C(=O)/C=C/c2nc(C(C)(F)F)no2)C1)c1nc(OC[C@@]23CCCN2C[C@H](F)C3)nc2c(F)c(-c3nc(N)cc4cccc(Cl)c34)ncc12` [Example 169, (E)-1-(3-(((7-(3-amino-8-chloroisoquinolin-1-yl)-8-fluoro-2-(((2R,7aS)-2-fluorotetrahydro-1H-pyrrolizin-7a(5H)-yl)methoxy)pyrido[4,3-d]pyrimidin-4-yl)(methyl)amino)methyl)azetidin-1-yl)-3-(3-(1,1-difluoroethyl)-1,2,4-oxadiazol-5-yl)prop-2-en-1-one], the IC50 was below 10 nM. With `Cc1cc(N)nc(-c2ncc3c(N(C)[C@@H]4CCN(C(=O)/C=C/c5nc(C(C)C)no5)C4)nc(OC[C@@]45CCCN4C[C@H](F)C5)nc3c2F)c1C1CC1` [Example 170] the figure was 10 to 100 nM; with `C=CC(=O)N1CC[C@@H](N(C)c2nc(OC[C@@]34CCCN3C[C@H](F)C4)nc3c(F)c(-c4nc(N)cc(C)c4C)ncc23)C1` [Example 171], 100 to 500 nM. In the case of `Cc1cc(N)nc(-c2ncc3c(N(C)CC4CN(C(=O)/C=C/c5nc(C(C)C)no5)C4)nc(OC[C@@]45CCCN4C[C@H](F)C5)nc3c2F)c1C1CC1` [Example 175] it was 100 to 500 nM; in that of `Cc1cc(N)nc(-c2ncc3c(N(C)CC4CN(C(=O)/C=C/c5nc(C6CC6)no5)C4)nc(OC[C@@]45CCCN4C[C@H](F)C5)nc3c2F)c1C(F)(F)F` [Example 176], below 10 nM.

As for `CC(C)c1noc(/C=C/C(=O)N2CC[C@@H](N(C)c3nc(OC[C@@]45CCCN4C[C@H](F)C5)nc4c(F)c(-c5nc(N)ccc5F)ncc34)C2)n1` [Example 178, (E)-1-((R)-3-((7-(6-amino-3-fluoropyridin-2-yl)-8-fluoro-2-(((2R,7aS)-2-fluorotetrahydro-1H-pyrrolizin-7a(5H)-yl)methoxy)pyrido[4,3-d]pyrimidin-4-yl)(methyl)amino)pyrrolidin-1-yl)-3-(3-isopropyl-1,2,4-oxadiazol-5-yl)prop-2-en-1-one], the IC50 was at least 500 nM. In the case of `C=CC(=O)N1CC[C@@H](N(C)c2nc(OC[C@@]34CCCN3C[C@H](F)C4)nc3c(F)c(-c4cn[nH]c4C4CC4)ncc23)C1` [Example 179] it was at least 500 nM. With `CN1CC[C@@H]1/C=C/C(=O)N1CC[C@@H](N(C)c2nc(OC[C@@]34CCCN3C[C@H](F)C4)nc3c(F)c(-c4cc(O)cc(F)c4C4CC4)ncc23)C1` [Example 180] the figure was below 10 nM; with `C=CC(=O)N1CC[C@@H](N(C)c2nc(OC[C@@]34CCCN3C[C@H](F)C4)nc3c(F)c(-c4ccccc4C(F)F)ncc23)C1` [Example 181], at least 500 nM; with `C=CC(=O)N1CC[C@@H](N(C)c2nc(OC[C@@]34CCCN3C[C@H](F)C4)nc3c(F)c(-c4ccccc4OC(F)F)ncc23)C1` [Example 182], at least 500 nM. With `C=CC(=O)N1CC[C@@H](N(C)c2nc(OC[C@@]34CCCN3C[C@H](F)C4)nc3c(F)c(-c4scnc4C)ncc23)C1` [Example 183] the figure was at least 500 nM; with `CN(C)C/C=C/C(=O)N1CC[C@@H](N(C)c2nc(OC[C@@]34CCCN3C[C@H](F)C4)nc3c(F)c(-c4cccc(Cl)c4C4CC4)ncc23)C1` [Example 184], 10 to 100 nM. `C=CC(=O)N1CC[C@@H](N(C)c2nc(OC[C@@]34CCCN3C[C@H](F)C4)nc3c(F)c(-c4cc(OC(F)F)ccc4Cl)ncc23)C1` [Example 186] gave an IC50 of at least 500 nM. With `C=CC(=O)N1CC[C@@H](N(C)c2nc(OC[C@@]34CCCN3C[C@H](F)C4)nc3c(F)c(-c4cccc(OC(F)F)c4C4CC4)ncc23)C1` [Example 187], the IC50 is at least 500 nM. With `C=CC(=O)N1CC[C@@H](N(C)c2nc(OC[C@@]34CCCN3C[C@H](F)C4)nc3c(F)c(-c4cncc(F)c4C4CC4)ncc23)C1` [Example 188] the figure was at least 500 nM; with `C=CC(=O)N1CC[C@@H](N(C)c2nc(OC[C@@]34CCCN3C[C@H](F)C4)nc3c(F)c(-c4cccc(OC)c4C4CC4)ncc23)C1` [Example 189], at least 500 nM; with `C=CC(=O)N1CC[C@@H](N(C)c2nc(OC[C@@]34CCCN3C[C@H](F)C4)nc3c(F)c(-c4cncc5ccc(F)c(F)c45)ncc23)C1` [Example 190], at least 500 nM. In the case of `C=CC(=O)N1CC[C@@H](N(C)c2nc(OC[C@@]34CCCN3C[C@H](F)C4)nc3c(F)c(-c4cc(F)cc(Cl)c4C4CC4)ncc23)C1` [Example 191], the IC50 lay in the range of 100 to 500 nM. In the case of `C=CC(=O)N1CC[C@@H](N(C)c2nc(OC[C@@]34CCCN3C[C@H](F)C4)nc3c(F)c(-c4cc(O)cc5nccnc45)ncc23)C1` [Example 192] it was 100 to 500 nM; in that of `CN(c1nc(OC[C@@]23CCCN2C[C@H](F)C3)nc2c(F)c(-c3cccc(Cl)c3C3CC3)ncc12)[C@@H]1CCN(C(=O)C#C[C@]2(C)CCCN2)C1` [Example 193], below 10 nM. In the case of `C=CC(=O)N1CC[C@@H](N(C)c2nc(OC[C@@]34CCCN3C[C@H](F)C4)nc3c(F)c(-c4c(Cl)c(C)cc5[nH]ncc45)ncc23)C1` [Example 194] it was 10 to 100 nM; in that of `C=CC(=O)N1CC[C@@H](N(C)c2nc(OC[C@@]34CCCN3C[C@H](F)C4)nc3c(F)c(-c4cccc(C(F)F)c4C4CC4)ncc23)C1` [Example 195], at least 500 nM; in that of `C=CC(=O)N1CC[C@@H](N(C)c2nc(OC[C@@]34CCCN3C[C@H](F)C4)nc3c(F)c(-c4c[nH]nc4C(F)(F)F)ncc23)C1` [Example 196], at least 500 nM. With `CN(C)C/C=C/C(=O)N1CC[C@@H](N(C)c2nc(OC[C@@]34CCCN3C[C@H](F)C4)nc3c(F)c(-c4cc(O)cc(Cl)c4C4CC4)ncc23)C1` [Example 197] the figure was below 10 nM.

Regarding `C=CC(=O)N1CC[C@@H](N(C)c2nc(OC[C@@]34CCCN3C[C@H](F)C4)nc3c(F)c(-c4cccc(C(F)(F)F)c4C4CC4)ncc23)C1` [Example 198], the IC50 is at least 500 nM.

Turning to `C=CC(=O)N1CC(CN(C)c2nc(OCC34CCCN3CCC4)nc3c2C[C@@H](C)[C@H](c2nc(N)cc(C)c2C(F)(F)F)C3)C1` [Example 199], the IC50 was at least 500 nM. As for `Cc1cc(/C=C/C(=O)N2CC(CN(C)c3nc(OC[C@@]45CCCN4C[C@H](F)C5)nc4c(F)c(-c5cccc(Cl)c5C5CC5)ncc34)C2)nc(C)n1` [Example 200], the IC50 lay within 100 to 500 nM.

Take `Cc1cc(/C=C/C(=O)N2CC[C@@H](N(C)c3nc(OC[C@@]45CCCN4C[C@H](F)C5)nc4c(F)c(-c5cc(O)cc(Cl)c5C5CC5)ncc34)C2)nc(C)n1` [Example 201]: the IC50 was below 10 nM. With `C=CC(=O)N1CC[C@@H](N(C)c2nc(OC[C@@]34CCCN3C[C@H](F)C4)nc3c(F)c(-c4ccc(F)c(F)c4C4CC4)ncc23)C1` [Example 202] the figure was at least 500 nM; with `Cc1cc(N)nc(N2CCc3c(nc(OC[C@@]45CCCN4C[C@H](F)C5)nc3N(C)[C@@H]3CCN(C#N)C3)C2)c1C(F)(F)F` [Example 203], at least 500 nM; with `Cc1cc(/C=C/C(=O)N2CC(CN(C)c3nc(OC[C@@]45CCCN4C[C@H](F)C5)nc4c(F)c(-c5cc(O)cc(Cl)c5C5CC5)ncc34)C2)nc(C)n1` [Example 204], 100 to 500 nM. In the case of `C=CC(=O)N1CC[C@H](O)[C@@H](N(C)c2nc(OC[C@@]34CCCN3C[C@H](F)C4)nc3c(F)c(-c4cccc(Cl)c4C(F)(F)F)ncc23)C1` [Example 205] it was at least 500 nM; in that of `C=CC(=O)N1CC[C@@H](N(C)c2nc(OC[C@@]34CCCN3C[C@H](F)C4)nc3c(F)c(-c4cc(O)cc(F)c4C4CC4)ncc23)C1` [Example 206], below 10 nM.
